Here are results for 5 compounds from ChEMBL document CHEMBL1641605, “Diphenylpropynone derivatives as probes for imaging β-amyloid plaques in Alzheimer's brains” (Bioorg Med Chem Lett, 2011).

Series [1] addresses Amyloid-beta precursor protein (Homo sapiens, UniProt P05067). Put plainly: Displacement of [125I]DMIC from Amyloid beta (1 to 42) after 3 hrs by gamma counting. (In general: In a radioligand displacement assay an active substance lowers the binding of a labelled ligand.)
For series [2], the system named is Brain. Put plainly: Biodistribution in ddY mouse brain assessed as per gram of tissue at 0.3 to 0.5 uCi, iv after 2 mins by gamma counting. The series is classed as ADME, organism-based. To be noted: in vivo.
Series [3] has as its system Kidney. Put plainly: Biodistribution in ddY mouse kidney assessed as per gram of tissue at 0.3 to 0.5 uCi, iv after 2 mins by gamma counting. The series is classed as ADME, organism-based. To be noted: in vivo.
Series [4] deals with Heart. In words: Biodistribution in ddY mouse heart assessed as per gram of tissue at 0.3 to 0.5 uCi, iv after 60 mins by gamma counting. It counts as ADME, organism-based. To be noted: in vivo, 1 h.
Series [5] deals with Blood. In words: Biodistribution in ddY mouse blood assessed as per gram of tissue at 0.3 to 0.5 uCi, iv after 30 mins by gamma counting. To be noted: in vivo, 0.5 h. It counts as ADME, organism-based.
The test system of series [6] is Pancreas. Put plainly: Biodistribution in ddY mouse pancreas assessed as per gram of tissue at 0.3 to 0.5 uCi, iv after 60 mins by gamma counting. The series is classed as ADME, organism-based. To be noted: in vivo, 1 h.
For series [7], the system named is Intestine. Put plainly: Biodistribution in ddY mouse intestine assessed as per organ at 0.3 to 0.5 uCi, iv after 10 mins by gamma counting. The series is classed as ADME, organism-based. To be noted: in vivo.
The subject of series [8] is Blood. Put plainly: Biodistribution in ddY mouse blood assessed as per gram of tissue at 0.3 to 0.5 uCi, iv after 60 mins by gamma counting. It counts as ADME, organism-based. To be noted: in vivo, 1 h.
Series [9] has as its system Spleen. Put plainly: Biodistribution in ddY mouse spleen assessed as per gram of tissue at 0.3 to 0.5 uCi, iv after 2 mins by gamma counting. The series is classed as ADME, organism-based. To be noted: in vivo.
The subject of series [10] is Intestine. Put plainly: Biodistribution in ddY mouse intestine assessed as per organ at 0.3 to 0.5 uCi, iv after 60 mins by gamma counting. The series is classed as ADME, organism-based. The conditions noted are these: in vivo, 1 h.
Series [11] concerns Pancreas. Put plainly: Biodistribution in ddY mouse pancreas assessed as per gram of tissue at 0.3 to 0.5 uCi, iv after 2 mins by gamma counting. The series is classed as ADME, organism-based. To be noted: in vivo.
For series [12], the system named is Liver. Put plainly: Biodistribution in ddY mouse liver assessed as per gram of tissue at 0.3 to 0.5 uCi, iv after 10 mins by gamma counting. The series is classed as ADME, organism-based. To be noted: in vivo.
The subject of series [13] is Spleen. Put plainly: Biodistribution in ddY mouse spleen assessed as per gram of tissue at 0.3 to 0.5 uCi, iv after 10 mins by gamma counting. To be noted: in vivo. The series is classed as ADME, organism-based.
Series [14] deals with Kidney. In words: Biodistribution in ddY mouse kidney assessed as per gram of tissue at 0.3 to 0.5 uCi, iv after 60 mins by gamma counting. It counts as ADME, organism-based. To be noted: in vivo, 1 h.
Series [15] deals with Brain. Put plainly: Biodistribution in ddY mouse brain assessed as per gram of tissue at 0.3 to 0.5 uCi, iv after 30 mins by gamma counting. The series is classed as ADME, organism-based. To be noted: in vivo, 0.5 h.
For series [16], the system named is Blood. In words: Biodistribution in ddY mouse blood assessed as per gram of tissue at 0.3 to 0.5 uCi, iv after 10 mins by gamma counting. The conditions noted are these: in vivo. The series is classed as ADME, organism-based.
The test system of series [17] is Stomach. Put plainly: Biodistribution in ddY mouse stomach assessed as per gram of tissue at 0.3 to 0.5 uCi, iv after 60 mins by gamma counting. The series is classed as ADME, organism-based. The conditions noted are these: in vivo, 1 h.
Series [18] relates to Intestine. In words: Biodistribution in ddY mouse intestine assessed as per organ at 0.3 to 0.5 uCi, iv after 30 mins by gamma counting. The conditions noted are these: in vivo, 0.5 h. The series is classed as ADME, organism-based.
Series [19] relates to Stomach. Put plainly: Biodistribution in ddY mouse stomach assessed as per gram of tissue at 0.3 to 0.5 uCi, iv after 10 mins by gamma counting. The series is classed as ADME, organism-based. To be noted: in vivo.
The test system of series [20] is Intestine. In words: Biodistribution in ddY mouse intestine assessed as per organ at 0.3 to 0.5 uCi, iv after 2 mins by gamma counting. It counts as ADME, organism-based. To be noted: in vivo.
The test system of series [21] is Brain. In words: Biodistribution in ddY mouse brain assessed as per gram of tissue at 0.3 to 0.5 uCi, iv after 60 mins by gamma counting. The series is classed as ADME, organism-based. The conditions noted are these: in vivo, 1 h.
In series [22] the test system is Stomach. Put plainly: Biodistribution in ddY mouse stomach assessed as per gram of tissue at 0.3 to 0.5 uCi, iv after 2 mins by gamma counting. It counts as ADME, organism-based. The conditions noted are these: in vivo.
For series [23], the system named is Blood. In words: Biodistribution in ddY mouse blood assessed as per gram of tissue at 0.3 to 0.5 uCi, iv after 2 mins by gamma counting. The series is classed as ADME, organism-based. To be noted: in vivo.
Series [24] concerns Spleen. In words: Biodistribution in ddY mouse spleen assessed as per gram of tissue at 0.3 to 0.5 uCi, iv after 60 mins by gamma counting. The conditions noted are these: in vivo, 1 h. The series is classed as ADME, organism-based.
The subject of series [25] is Pancreas. Put plainly: Biodistribution in ddY mouse pancreas assessed as per gram of tissue at 0.3 to 0.5 uCi, iv after 10 mins by gamma counting. It counts as ADME, organism-based. To be noted: in vivo.
Series [26] concerns Liver. Put plainly: Biodistribution in ddY mouse liver assessed as per gram of tissue at 0.3 to 0.5 uCi, iv after 30 mins by gamma counting. It counts as ADME, organism-based. To be noted: in vivo, 0.5 h.
For series [27], the system named is Heart. Put plainly: Biodistribution in ddY mouse heart assessed as per gram of tissue at 0.3 to 0.5 uCi, iv after 2 mins by gamma counting. The series is classed as ADME, organism-based. The conditions noted are these: in vivo.
The subject of series [28] is Heart. Put plainly: Biodistribution in ddY mouse heart assessed as per gram of tissue at 0.3 to 0.5 uCi, iv after 10 mins by gamma counting. To be noted: in vivo. The series is classed as ADME, organism-based.
Series [29] has as its system Spleen. Put plainly: Biodistribution in ddY mouse spleen assessed as per gram of tissue at 0.3 to 0.5 uCi, iv after 30 mins by gamma counting. The series is classed as ADME, organism-based. The conditions noted are these: in vivo, 0.5 h.
In series [30] the test system is Liver. Put plainly: Biodistribution in ddY mouse liver assessed as per gram of tissue at 0.3 to 0.5 uCi, iv after 2 mins by gamma counting. It counts as ADME, organism-based. The conditions noted are these: in vivo.
For series [31], the system named is Pancreas. Put plainly: Biodistribution in ddY mouse pancreas assessed as per gram of tissue at 0.3 to 0.5 uCi, iv after 30 mins by gamma counting. It counts as ADME, organism-based. The conditions noted are these: in vivo, 0.5 h.
In series [32] the test system is Kidney. Put plainly: Biodistribution in ddY mouse kidney assessed as per gram of tissue at 0.3 to 0.5 uCi, iv after 10 mins by gamma counting. It counts as ADME, organism-based. To be noted: in vivo.
Series [33] relates to Liver. Put plainly: Biodistribution in ddY mouse liver assessed as per gram of tissue at 0.3 to 0.5 uCi, iv after 60 mins by gamma counting. It counts as ADME, organism-based. The conditions noted are these: in vivo, 1 h.
The test system of series [34] is Heart. In words: Biodistribution in ddY mouse heart assessed as per gram of tissue at 0.3 to 0.5 uCi, iv after 30 mins by gamma counting. To be noted: in vivo, 0.5 h. It counts as ADME, organism-based.
The subject of series [35] is Kidney. Put plainly: Biodistribution in ddY mouse kidney assessed as per gram of tissue at 0.3 to 0.5 uCi, iv after 30 mins by gamma counting. It counts as ADME, organism-based. The conditions noted are these: in vivo, 0.5 h.
Series [36] has as its system Brain. Put plainly: Biodistribution in ddY mouse brain assessed as per gram of tissue at 0.3 to 0.5 uCi, iv after 10 mins by gamma counting. The series is classed as ADME, organism-based. The conditions noted are these: in vivo.
Series [37] deals with Stomach. Put plainly: Biodistribution in ddY mouse stomach assessed as per gram of tissue at 0.3 to 0.5 uCi, iv after 30 mins by gamma counting. To be noted: in vivo, 0.5 h. It counts as ADME, organism-based.
The species named for series [38] is Mus musculus. In words: Binding affinity to beta-amyloid in Tg2576 transgenic mouse brain after 3 mins by microscopic analysis. It counts as tissue-based.
For series [39], the species on record is Mus musculus. Put plainly: Binding affinity to beta-amyloid in wild type mouse brain after 3 mins by microscopic analysis. The series is classed as tissue-based.

Calls of active or inactive are those of the source. The calls are words filed in the database; no cut-off is given here.

Amyloid-beta precursor protein, sequence (P05067 whole entry): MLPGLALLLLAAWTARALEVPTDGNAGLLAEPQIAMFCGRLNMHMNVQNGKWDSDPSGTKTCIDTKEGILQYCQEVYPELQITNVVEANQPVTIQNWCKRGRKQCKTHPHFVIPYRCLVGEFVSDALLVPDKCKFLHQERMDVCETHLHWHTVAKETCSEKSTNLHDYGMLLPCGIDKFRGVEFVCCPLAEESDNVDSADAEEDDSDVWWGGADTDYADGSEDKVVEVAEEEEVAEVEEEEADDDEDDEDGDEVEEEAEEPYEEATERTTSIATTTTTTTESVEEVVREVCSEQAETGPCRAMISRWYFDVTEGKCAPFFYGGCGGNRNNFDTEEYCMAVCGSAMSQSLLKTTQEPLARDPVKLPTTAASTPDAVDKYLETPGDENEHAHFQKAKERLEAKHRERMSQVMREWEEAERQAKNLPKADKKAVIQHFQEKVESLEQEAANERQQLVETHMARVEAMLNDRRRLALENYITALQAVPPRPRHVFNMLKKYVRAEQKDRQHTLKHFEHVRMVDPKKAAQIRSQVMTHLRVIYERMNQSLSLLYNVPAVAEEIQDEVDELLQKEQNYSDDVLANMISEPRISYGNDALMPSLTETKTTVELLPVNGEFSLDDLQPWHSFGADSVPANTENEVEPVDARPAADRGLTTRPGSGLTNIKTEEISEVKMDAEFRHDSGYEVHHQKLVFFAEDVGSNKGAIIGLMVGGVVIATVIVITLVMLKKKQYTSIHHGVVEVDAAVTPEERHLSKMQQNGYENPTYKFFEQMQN

With `COc1ccc(C#CC(=O)c2ccc(I)cc2)cc1`, in [1], the affinity, expressed as Ki, was 13.7 nM.
On to `CN(C)c1ccc(C#CC(=O)c2ccc(F)cc2)cc1`, for which, in [1], the Ki was 20.4 nM.
In [1], `O=C(C#Cc1ccc(O)cc1)c1ccc(I)cc1` had a Ki of 326 nM.
Regarding `CN(C)c1ccc(C#CC(=O)c2ccc([125I])cc2)cc1`, the Drug uptake in series [2] turned out to be 1.55 %ID; in [3], 10.45 %ID; in [4], 4.94 %ID; in series [5], 3.94 %ID; in series [6], 2.09 %ID; in [7], 8.44 %ID. The Drug uptake is given as 3.07 %ID in series [8]; 4.41 %ID in [9]; 14.02 %ID in [10]; 3.9 %ID in series [11]; 15.29 %ID in [12]; 5.19 %ID in series [13]. Moreover, the Drug uptake in series [14] is on record as 7.75 %ID; in series [15] it was 0.93 %ID; in series [16] it was 5.44 %ID; in series [17] it was 1.46 %ID; in [18] it was 12.04 %ID; in series [19], 2.97 %ID. In addition, the Drug uptake is recorded as 2.73 %ID in series [20]; 0.76 %ID in series [21]; 0.75 %ID in series [22]; 6.19 %ID in series [23]; 4.43 %ID in [24]; 3.39 %ID in [25]. The Drug uptake in series [26] is given as 12.02 %ID; in [27], 10 %ID; in [28] it was 7.53 %ID; in series [29], 5.47 %ID; in [30], 19.96 %ID; in series [31] it was 2.57 %ID. For the same compound, the Drug uptake amounted to 9.81 %ID in [32]; 10.06 %ID in series [33]; 6.03 %ID in series [34]; 8.34 %ID in series [35]; 1.23 %ID in series [36]; 2.35 %ID in [37].
In series [1], `CN(C)c1ccc(C#CC(=O)c2ccc(I)cc2)cc1` came in with a Ki of 6 nM. In addition, in series [38], the outcome was Active. Besides, the result in series [39] was inactive.

Usually Ki stands for the dissociation constant of the complex between target and ligand, obtained from inhibition or displacement.
